Reference: PMC12388300, “The Chelating Abilities of Tertiary Amines with N-O-Donors Towards Cu(II) Ions and the Catalytic Properties of the Resulting Complexes” (Molecules, 2025)
Marks after values point to notes of the source that are not given here.

Assays:
[1] = Cyclic voltammetry of the Cu(II)/Cu(I) couple; assay type: physicochemical; conditions: for ΔE: Epc − Epa; for ΔE / │ia/ic│ / E1/2: PBS pH 7.8; for │ia/ic│: peak current ratio; for E1/2 / Epa / Epc: vs NHE; for E1/2: E1/2=(Epc+Epa)/2; for Epa / Epc: PBS 10 mM, 150 mM NaCl, pH 7.8, 0.25 mM complex
Protocol: To assess this behavior, the corresponding redox potentials were measured by cyclic voltammetry (CV), offering key insights into the electron-transfer properties of the complexes. The metal ion redox potential should ideally lie between the potential for oxidation (−0.16 V vs. NHE) (Equation (1)) and reduction (0.89 V vs. NHE) of superoxide radicals (Equation (2)).(1) O2∙−→O2+e^− (2) O2∙−+e^−+H^+→H2O2
The key electrochemical parameters extracted from the cyclic voltammograms are summarized in Table 3, highlighting a similar redox behavior of the complexes with both ligands. However, the nature of the anion appears to influence the properties of the mononuclear species formed in situ, compared with the isolated complexes.
Cyclic voltammetry experiments were carried out using a BAS Cell C3 EC-epsilon potentiostat equipped with a conventional three-electrode system consisting of a glassy carbon working electrode (3 mm diameter, geometric surface 7 mm^2), a platinum wire counter electrode (CE), and a silver/silver chloride reference electrode (Ag/AgCl, 3 M KCl). Voltammograms were recorded in phosphate-buffered saline (PBS; 10 mM, 150 mM NaCl, pH 7.8) containing 0.25 mM of the complex. The measurements were performed within a potential window from −600 mV to +400 mV, employing various scan rates (50 mV/s, 100 mV/s, 200 mV/s, 400 mV/s, and 800 mV/s).

[2] = SOD activity, indirect cytochrome C (CytC) assay, xanthine/xanthine oxidase; assay type: biochemical; conditions: [CytC] = 10 μM, pH = 7.8; for IC50: CytC assay, [xanthine] = 40 μM, [xanthine oxidase] = 0.0053 U/mL, phosphate buffer 50 mM; for Log (kcat): kcat(O2•−)=kCytC·[CytC]/IC50, kCytC=2.6×10^5 M^−1s^−1
Protocol: To reduce uncertainty about the actual active species involved in the reaction, the catalytic investigations were made with the isolated species. The ability to catalyze superoxide dismutation was assessed using the indirect cytochrome C-based assay originally introduced by McCord and Fridovich. In this kind of test, the presence of a catalyst with SOD activity, acting as a scavenger for O2^•− and generated via a xanthine/xanthine oxidase system, prevents the electron transfer to cytochrome C (Cyt C) to form […].
(§1) Catalytic measurement assays were conducted using a Varian Cary 100 spectrophotometer with a 3 mL quartz cuvette (1 cm path length) for evaluating SOD-like activity. For the assessment of peroxidase-mimicking activity, a Varian Cary 50 instrument and identical cuvettes were utilized. To monitor the CAT-like activity, a 25 mL vial, equipped with a septum for solution injection, was used as a reactor and connected to a pressure transducer.

[3] = Peroxidase activity: morin oxidation with H2O2; assay type: biochemical; conditions: after 16 h with H2O2; [Morin] = 0.16 mM, [Catalyst] = 1.6 μM, [H2O2] = 0.01 M, PBS 50 mM, pH 7.8
Protocol: Since initial antioxidant evaluations were conducted without incorporating oxidizable substrates, it is therefore essential to assess the behavior of the complexes in the presence of organic substrates. To this aim, we employed two distinct categories of model substrate: morin and o-phenylenediamine (OPD). We evaluated the spectral changes during morin oxidation, i.e., absorbance decreases for the substrate (Figure 7 and Figures S50–S53 in the Supporting Materials) and increase for the 2,3-diaminephenazine (DAP), the product of the oxidative degradation of the OPD (Figures S55–S58 in the Supporting Materials).
Figure 7 Residual absorbance of morin at the maximum absorption (390 nm) after reaction of the complexes with H2O2 for 16 h. [Morin] = 0.16 mM, [Catalyst] = 1.6 μM, [H2O2] = 0.01 M, PBS buffer (50 mM), pH 7.8.
Peroxidase activity was evaluated via UV-Vis spectroscopy by monitoring the time-dependent absorbance changes of oxidized substrates in the presence of H₂O₂ and copper complexes. Two substrates were used: morin and o-phenylenediamine (OPD).
For morin, the oxidative degradation (Figure S49) was evidenced by a decrease in absorbance at 390 nm. […]
The reaction kinetics were monitored over 18 hours with spectra collected every 20 minutes (Figures S50–S53). […]
Figure S50: Absorbance variation of the morine, with the complex Cu(HL1)(ClO 4)2. […]

[4] = CAT-like activity: O2 pressure from hydrogen peroxide dismutation; assay type: biochemical; set-up: Rmax: unit not given here; conditions: [catalyst] = 200 μM, [H2O2] = 20–30 mM in BBS 50 mM, pH = 7.8
Protocol: The studied catalase-like activity of the complexes was evaluated by measuring the pressure resulting from the oxygen produced during the dismutation of the hydrogen peroxide. For this analysis, a borate-based buffer system (BBS 50 mM, pH 7.8) was utilized to avoid the competitive binding of phosphate anions.
as §1, with “transducer. […]” for “transducer.”
To monitor the CAT-like activity, a 25 mL vial was used as a reactor, connected to a pressure transducer and
a septum for the injection.

[5] = UV–Vis monitoring of complex stability during H2O2 dismutation; assay type: physicochemical; conditions: complex 200 μM, H2O2 10 mM in BBS 50 mM pH 7.8
Text: The reaction progression was monitored by UV–Vis to gather insights into the stability of the complexes during H2O2 dismutation (Figures S45–S48 in Supplementary Materials). Analyzing the spectra recorded for the systems derived from HL1 and HL5, it is possible to observe changes in the absorption bands. In the case of the mononuclear species containing HL1, the alteration in the absorption band takes place over a comparatively extended period, in agreement with the occurrence of the delay period previously noted. The intensity associated with the π→π * electronic transition progressively diminishes, coinciding with a rise in molecular oxygen generation. Such a trend implies structural reconfiguration within the coordination environment of the complex, which appears necessary to initiate the catalytic event. On the other hand, the characteristic absorption feature vanishes after 4 h as a result of the formation of radical species. The UV–Vis profile of the complex Cu(HL5)(ClO4)2 (Figure S46) undergoes a faster modification.
Figure S46: UV-Vis spectra of Cu(HL5)(ClO4)2 at time 0 (red) and after 7 h (light red). The colours variation represents an increment of 5 min from t=0 to t=15 min, of 15 min from t=15 to t= 45 min and 45 min from t= 45 to t=360 min.
Conditions: [Cu(HL5)(ClO4)2]= 200 uM, [H2O2]=10mM in BBS 50mM pH=7.8. Zoom: temporal trends compared to O2 (red) and Abs (light red) on the maximum absorption at 294 nm.
Figure S47: UV-Vis spectra of Cu2(L1)2(ClO4)2 at time 0 (blue) and after 24 hours (light blue). Every change of colors represents a temporal increase of 90 minutes. Conditions: [Cu2(L1)2(ClO4)2] = 200 µM, [H2O2] = 10 mM in BBS 50 mM, pH = 7.8. Zoom: temporal trends compared to O2 (blue) and Abs (light blue) on the maximum absorption at 288 nm.
Figure S48: UV-Vis spectra of Cu2(L5)2(ClO4)2 at time 0 (dark green) and after 24 hours (light green). Every change of colours represents a temporal increase of 90 minutes. Conditions: [Cu2(L5)2(ClO4)2] = 200 µM, [H2O2] = 10 mM in BBS 50 mM, pH = 7.8. […]

In the case of `COc1cccc(CN(Cc2ccccn2)Cc2ccccn2)c1[O-].COc1cccc(CN(Cc2ccccn2)Cc2ccccn2)c1[O-].[Cu+2].[Cu+2].[O-][Cl+3]([O-])([O-])[O-].[O-][Cl+3]([O-])([O-])[O-]` [Cu2(L5)2(ClO4)2], the ΔE [1] is reported as −0.081 V, the “│ia/ic│” value [1] is reported as 0.90 and the E1/2 [1] is reported as −0.179 V. The Epa [1] was −0.138 V, the Epc [1] was −0.219 V and the IC50 [2] was 1280 nM. For the same molecule, the “Log (kcat)” value [2] was 6.31 ^h, the “residual absorbance of morin (390 nm)” value [3] was 40% and the “Time (to maximum O2 production)” value [4] was 950 min. For the same molecule, the O2 generated ([4]; triplicate, ±10% error) was 7.7 mmol/L, the Rmax ([4]; triplicate, ±10% error) was 0.36 and the “time in which the π→π* absorbance feature fades / changes” value [5] was no more than 90 min.

With `COc1cccc(CN(Cc2ccccn2)Cc2ccccn2)c1O.[Cu+2].[O-][Cl+3]([O-])([O-])[O-].[O-][Cl+3]([O-])([O-])[O-]` [Cu(HL5)(ClO4)2] the ΔE [1] was −0.106 V, the “│ia/ic│” value [1] was 0.52 and the E1/2 [1] was −0.149 V. The Epa [1] was −0.096 V, the Epc [1] was −0.202 V and the IC50 [2] was 1040 nM. For the same molecule, the “Log (kcat)” value [2] was 6.41 ^h, the “residual absorbance of morin (390 nm)” value [3] was 21% and the “Time (to maximum O2 production)” value [4] was 1300 min. The O2 generated ([4]; triplicate, ±10% error) was 9.8 mmol/L and the “time in which the π→π* absorbance feature fades / changes” value [5] was “approximately 60 min”.
